One assay concerns the target T1, HLA-A2.1 (Homo sapiens, UniProt P04439, D140Y/D185E/D98H/E176V/E277Q/G131W/G231S/I119V/I121R/I166T/I218V/L300P/L318F/N151K/N90K/P208A/P217A/Q86G/Q94H/R138H/R169H/T345S).
T1 construct: T2 without exogenous peptide has low expression of HLA-A2 (30%-50%); endogenous in cells; host or cells: T2 (human T-B cell hybrid)
Kind of assay: class I MHC molecule stabilization assay on T2 cells. It is filed as cell-based. Conditions: T2 cells incubated 18 hours with peptide, vs medium alone.

Assay [1] concerns peripheral blood mononuclear cells (PBMC). The assay can be described thus: standard proliferation assay of PBMC (3H-thymidine), CD4+ T cell response. It is filed as cell-based, human.
The next assay deals with PBL. The assay can be described thus: low frequency event screening assay for CD4+ T cell precursors in PBL of normal individuals. The assay is classed as cell-based, human.
A further assay deals with rat sera. The assay can be described thus: ELISA for peptide epitope analysis of sera of immunized rats. The assay is classed as in vivo. The settings on record: sera from rats immunized with ECD peptides. Here is the method: One group of rats was immunized with a mixture of extracellular domain (ECD) peptides and one group with a mixture of intracellular domain (ICD) peptides. The final group received adjuvant alone. Peptides were administered at a final concentration of 100 μg each in a total volume of 200 μl. The animals underwent 3 immunizations each 14-16 days apart with either CFA or IFA as adjuvant (Sigma ImmunoChemicals, St. Louis, Mo.). 16 days after the third immunization sera was obtained for assessment of immune response.
96 well Immulon 4 plates (Dynatech Laboratories) were incubated overnight at 4° C. with peptides at a concentration of 10 μg/well diluted in PBS alternating with rows of PBS/1%BSA. After incubation, all wells were blocked with PBS/1%BSA, 100 μl/well for 4 hours at room temperature. The plate was washed with PBS/0.5% Tween. After washing, the plate was incubated with rat sera at the following dilutions: 1:50 and 1:100. The sera was diluted in PBS/1%BSA/1% FBS/25 μg/ml mouse IgG/0.01% NaN3 and then serially into PBS/1%BSA. […] Color reaction was read at an optical density of 640 nm until the reading on the most reactive well reached 0.3 OD. The reaction was stopped with 1N HCl and the optical density was read at 450 nm. The OD of each serum dilution was calculated as the OD of the peptide coated wells minus the OD of the PBS/1%BSA coated wells. […]

[2] abbreviates: breast cancer patient A, HER-2/neu status Negative, tetanus toxoid 5 μg/ml, p185 5 μg/ml, peptides 50 μg/ml, 4 days.
[3] abbreviates: breast cancer patient B, HER-2/neu status Positive, tetanus toxoid 5 μg/ml, p185 5 μg/ml, peptides 50 μg/ml, 4 days.
Setting [4] is: breast cancer patient C, HER-2/neu status Positive, tetanus toxoid 5 μg/ml, p185 5 μg/ml, peptides 50 μg/ml, 4 days.
The mark [5] stands for this setting: breast cancer patient D, HER-2/neu status Positive, tetanus toxoid 5 μg/ml, p185 5 μg/ml, peptides 50 μg/ml, 4 days.

Regarding `CC(C)C[C@H](NC(=O)[C@H](CCC(N)=O)NC(=O)[C@@H](NC(=O)[C@@H](NC(=O)[C@H](CO)NC(=O)[C@@H](NC(=O)[C@H](CC(C)C)NC(=O)[C@@H](N)CS)[C@@H](C)O)[C@@H](C)O)C(C)C)C(=O)N[C@H](C(=O)O)C(C)C` [p789-797], the “% Increase of class I stabilization on T2” value at HLA-A2.1 stood at 20%.
With Tetanus Toxoid [reference compound], the “Stimulation Index (S.I.)” value is on record as 52 in assay [1] (setting [2]); 36 in assay [1] (setting [3]); 7 in assay [1] (setting [4]); 10 in assay [1] (setting [5]); 6 in assay [1] (normal individual 1); 7 in assay [1] (normal individual 2). For the same compound, the “Stimulation Index (S.I.)” value in assay [1] (normal individual 3) is 7; in assay [1] (normal individual 4) it was 10; in assay [1] (normal individual 5), 11.
As for “p185: protein product of the HER-2/neu oncogene, partially purified whole protein from SKBR3 cell membranes”, the “Stimulation Index (S.I.)” value in assay [1] (setting [2]) is 13; in assay [1] (setting [3]) it was < 2; in assay [1] (setting [4]), 4; in assay [1] (setting [5]), 4; in assay [1] (normal individual 1), 2; in assay [1] (normal individual 2), < 2. For the same compound, the “Stimulation Index (S.I.)” value in assay [1] (normal individual 3) is < 2; in assay [1] (normal individual 4), 2; in assay [1] (normal individual 5) it was 2. In addition, the “CD4+ T cell response in low frequency screening” value with PBL (one normal individual (FIG. 2)) is listed as “Positive responses”. Further, the “individuals with a proliferative response” value in the assay with PBL (seven normal subjects (4 males, 3 females)) is 57%.
For the compound `CC(C)C[C@H](NC(=O)[C@@H](N)Cc1c[nH]cn1)C(=O)N[C@@H](Cc1ccc(O)cc1)C(=O)N[C@@H](CCC(N)=O)C(=O)NCC(=O)N[C@@H](CS)C(=O)N[C@@H](CCC(N)=O)C(=O)N[C@H](C(=O)N[C@H](C(=O)O)C(C)C)C(C)C` [p48-56], at HLA-A2.1, the “% Increase of class I stabilization on T2” value is listed as 20%.
As to TQRCEKCSKPCARVCYGL [p328-345], in the assay with rat sera, the “antibody responses to individual peptides” value was “substantial responses”.

Source of the values: patent US5846538A, “Immune reactivity to HER-2/neu protein for diagnosis and treatment of malignancies in which the her-2/neu oncogene is associated” (University of Washington, priority 1995, dated 1998).
